This note sets out measurements from US9512111B2, “N-sulfonylated tetrahydroquinolines and related bicyclic compounds for inhibition of RORγ activity and the treatment of disease” (Lycera Corporation, priority 2010, dated 2016).

The assay concerns the target T1, RORγ-LBD (Homo sapiens, UniProt P51449).
T1 construct: HIS-tagged RORγ-LBD was recombinantly expressed in SF9 cells; made in house; host or cells: SF9 cells (baculovirus); unpurified lysate
T1 sequence (P51449 269-508 limits assumed): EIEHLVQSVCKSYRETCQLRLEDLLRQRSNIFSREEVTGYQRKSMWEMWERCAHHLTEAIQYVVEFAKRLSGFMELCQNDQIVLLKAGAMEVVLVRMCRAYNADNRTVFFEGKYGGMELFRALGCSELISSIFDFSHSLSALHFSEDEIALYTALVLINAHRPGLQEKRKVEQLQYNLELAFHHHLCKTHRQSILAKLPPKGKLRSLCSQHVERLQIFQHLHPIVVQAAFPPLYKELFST
As to the kind of experiment: RORγ-Ligand Binding Domain TR-FRET Assay. It is filed as biochemical. In a few lines: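 Unpurified His-tagged LBD in Sf9 lysate (~10 nM final) in 25 mM HEPES pH 7.0, 100 mM NaCl, 0.01% Tween, 0.1% BSA, with biotinylated SRC1-2 LXXLL peptide (450 nM), Eu anti-His (2 nM) and streptavidin-APC (60 nM). Incubated 4 h to overnight; IC50 from 665/615 nm TR-FRET ratio.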

Structures are written as SMILES.

As to `O=C(Nc1ccc2cnn(S(=O)(=O)c3cccc(Cl)c3F)c2c1)c1c(F)cccc1Cl` [Compound V-167], the IC50 – broadly, the concentration that inhibits the measured activity by half – (Table 8, indazoles) was below 15 µM.

As for `O=C(Nc1ccc2cnn(S(=O)(=O)c3ccc(F)cc3F)c2c1)c1c(F)cccc1Cl` [Compound V-168], under “Table 8, indazoles”, the IC50 is below 15 µM. The same measure, in the same setting: in the case of `O=C(Nc1ccc2cnn(S(=O)(=O)c3cc(Cl)ccc3F)c2c1)c1c(F)cccc1Cl` [Compound V-169] it was below 15 µM; in that of `O=C(Nc1ccc2cnn(S(=O)(=O)c3ccc(F)c(F)c3)c2c1)c1c(F)cccc1Cl` [Compound V-170], below 15 µM. Same read-out and setting: to `O=C(Nc1ccc2cnn(S(=O)(=O)c3ccc(F)cc3)c2c1)c1c(F)cccc1Cl` [Compound V-171] belongs below 15 µM. Where the note is “benzoxazines, Table 9”, `C[C@H]1CN(S(=O)(=O)c2cccc(C#N)c2)c2cc(NC(=O)c3c(F)cccc3F)ccc2O1` [VI-2] had an IC50 below 15 µM.

Regarding `C[C@H]1CN(S(=O)(=O)c2cccc(C#N)c2)c2cc(NC(=O)c3c(Cl)cccc3Cl)ccc2O1` [VI-3], for the setting “benzoxazines, Table 9”, the half-inhibitory concentration (IC50) is below 15 µM. The same measure, in the same setting: to `C[C@H]1CN(S(=O)(=O)c2cccc(C#N)c2)c2cc(NC(=O)c3c(F)cccc3C(F)(F)F)ccc2O1` [VI-4] belongs below 15 µM; to `C[C@H]1CN(S(=O)(=O)c2cccc(C#N)c2)c2cc(NC(=O)c3c(Cl)cccc3C(F)(F)F)ccc2O1` [VI-5], below 15 µM. On the same count and under the same terms, to `C[C@H]1CN(S(=O)(=O)c2cccc(C#N)c2)c2cc(NC(=O)c3c(F)cccc3Cl)ccc2O1` [VI-6] belongs below 15 µM; to `O=C(Nc1ccc2c(c1)N(S(=O)(=O)c1ccc(F)cc1)CC(CC(F)(F)F)O2)c1c(F)cccc1Cl` (stereo not shown) [VI-7], below 15 µM. As for `C[C@H](O)[C@H]1CN(S(=O)(=O)c2ccc(F)cc2)c2cc(NC(=O)c3c(Cl)cccc3C(F)(F)F)ccc2O1` [VI-16], the concentration for half-maximal inhibition (IC50) (benzoxazines, Table 9) was below 15 µM. For the setting “benzoxazines, Table 9”, `C[C@@H](O)[C@H]1CN(S(=O)(=O)c2ccc(F)cc2)c2cc(NC(=O)c3c(F)cccc3Cl)ccc2O1` [VI-17] gave an IC50 below 15 µM. Compound `C[C@H]1CN(S(=O)(=O)c2ccc(F)cc2)c2cc(NC(=O)c3c(Cl)cccc3Cl)ccc2O1` [VI-18] yielded an IC50 (benzoxazines, Table 9) below 15 µM. With `C[C@H]1CN(S(=O)(=O)c2ccc(F)cc2)c2cc(NC(=O)c3c(F)cccc3C(F)(F)F)ccc2O1` [VI-19], the IC50 (benzoxazines, Table 9) is below 15 µM. Same read-out and setting: to `C[C@H]1CN(S(=O)(=O)c2ccc(F)cc2)c2cc(NC(=O)c3c(Cl)cccc3C(F)(F)F)ccc2O1` [VI-20] belongs below 15 µM; to `Cc1cccc(Cl)c1C(=O)Nc1ccc2c(c1)N(S(=O)(=O)c1ccc(F)cc1)C[C@H](C)O2` [VI-21], below 15 µM. Still for that read-out and setting: to `C[C@@H](O)[C@H]1CN(S(=O)(=O)c2ccc(F)cc2)c2cc(NC(=O)c3c(Cl)cccc3C(F)(F)F)ccc2O1` [VI-22] belongs below 15 µM; to `C[C@H](O)[C@H]1CN(S(=O)(=O)c2ccc(F)cc2)c2cc(NC(=O)c3c(F)cccc3Cl)ccc2O1` [VI-23], below 15 µM.

Take `NCC1CN(S(=O)(=O)c2ccc(F)cc2)c2cc(NC(=O)c3c(F)cccc3Cl)ccc2O1` (stereo not shown) [VI-31]: the concentration for half-maximal inhibition (IC50) (benzoxazines, Table 9) was below 15 µM.

With `CCCNCC1CN(S(=O)(=O)c2ccc(F)cc2)c2cc(NC(=O)c3c(F)cccc3Cl)ccc2O1` (stereo not shown) [VI-33], for the setting “benzoxazines, Table 9”, the concentration for half-maximal inhibition (IC50) was below 15 µM.

In turn, `CCNCC1CN(S(=O)(=O)c2ccc(F)cc2)c2cc(NC(=O)c3c(F)cccc3Cl)ccc2O1` (stereo not shown) [VI-34] gave an IC50 (benzoxazines, Table 9) below 15 µM. `O=C(Cc1ccc(Cl)cc1)Nc1ccc2c(c1)N(S(=O)(=O)c1ccc(Cl)cc1)C[C@@H](CO)O2` [VI-50] displayed a concentration for half-maximal inhibition (IC50) (benzoxazines, Table 9) below 15 µM. The compound `O=C(Cc1ccc(F)cc1)Nc1ccc2c(c1)N(S(=O)(=O)c1ccc(Cl)cc1)C[C@@H](CO)O2` [VI-53] yielded an IC50 (benzoxazines, Table 9) below 15 µM. Still for that read-out and setting: to `O=C(Nc1ccc2c(c1)N(S(=O)(=O)c1ccc(Cl)cc1)C[C@@H](CO)O2)c1c(F)cccc1Cl` [VI-54] belongs below 15 µM; to `O=C(Nc1ccc2c(c1)N(S(=O)(=O)c1ccc(Cl)cc1)C[C@@H](CO)O2)c1c(F)cccc1F` [VI-55], below 15 µM. Compound `N#Cc1cccc(S(=O)(=O)N2C[C@@H](CO)Oc3ccc(NC(=O)Cc4ccc(Cl)cc4)cc32)c1` [VI-56] yielded an IC50 (benzoxazines, Table 9) below 15 µM.

With `N#Cc1cccc(S(=O)(=O)N2C[C@@H](CO)Oc3ccc(NC(=O)c4c(F)cccc4C(F)(F)F)cc32)c1` [VI-57], the IC50 (benzoxazines, Table 9) was below 15 µM. Take `N#Cc1cccc(S(=O)(=O)N2C[C@@H](CO)Oc3ccc(NC(=O)Cc4ccc(F)cc4)cc32)c1` [VI-58]: the IC50 (benzoxazines, Table 9) is below 15 µM. As to `N#Cc1cccc(S(=O)(=O)N2C[C@@H](CO)Oc3ccc(NC(=O)c4c(F)cccc4Cl)cc32)c1` [VI-59], the IC50 (benzoxazines, Table 9) was below 15 µM.

With `N#Cc1cccc(S(=O)(=O)N2C[C@@H](CO)Oc3ccc(NC(=O)c4c(F)cccc4F)cc32)c1` [VI-60], the IC50 (benzoxazines, Table 9) was below 15 µM. Consider `N#Cc1cccc(S(=O)(=O)N2C[C@H](CO)Oc3ccc(NC(=O)Cc4ccc(Cl)cc4)cc32)c1` [VI-61], for which the IC50 (benzoxazines, Table 9) is below 15 µM. Still for that read-out and setting: in the case of `N#Cc1cccc(S(=O)(=O)N2C[C@H](CO)Oc3ccc(NC(=O)Cc4ccc(F)cc4)cc32)c1` [VI-64] it was below 15 µM. The same measure, in the same setting: in the case of `N#Cc1cccc(S(=O)(=O)N2C[C@H](CO)Oc3ccc(NC(=O)c4c(F)cccc4F)cc32)c1` [VI-65] it was below 15 µM; in that of `O=C(Cc1ccc(Cl)cc1)Nc1ccc2c(c1)N(S(=O)(=O)c1ccc(Cl)cc1)C[C@H](CO)O2` [VI-66], below 15 µM; in that of `O=C(Cc1ccc(F)cc1)Nc1ccc2c(c1)N(S(=O)(=O)c1ccc(Cl)cc1)C[C@H](CO)O2` [VI-68], below 15 µM. The compound `COCC1CN(S(=O)(=O)c2ccc(F)c(F)c2)c2cc(NC(=O)Cc3ccc(Cl)cc3)ccc2O1` (stereo not shown) [VI-69] yielded an IC50 (benzoxazines, Table 9) above 15 µM. Still for that read-out and setting: to `O=C(Cc1ccc(Cl)cc1)Nc1ccc2c(c1)N(S(=O)(=O)c1ccc(F)c(F)c1)C[C@@H](CO)O2` [VI-71] belongs below 15 µM; to `O=C(Cc1ccc(F)cc1)Nc1ccc2c(c1)N(S(=O)(=O)c1ccc(F)c(F)c1)C[C@@H](CO)O2` [VI-74], below 15 µM; to `O=C(Cc1ccc(Cl)cc1)Nc1ccc2c(c1)N(S(=O)(=O)c1ccc(F)cc1)C[C@H](CO)O2` [VI-77], below 15 µM. On to `O=C(Nc1ccc2c(c1)N(S(=O)(=O)c1ccc(F)cc1)CC(C(F)(F)F)O2)c1c(F)cccc1F` (stereo not shown) [VI-111], for which the IC50 (benzoxazines, Table 9) was below 15 µM. With `O=C(Nc1ccc2c(c1)N(S(=O)(=O)c1ccc(F)cc1)CC(C(F)(F)F)O2)c1c(F)cccc1Cl` (stereo not shown) [VI-117], the IC50 (benzoxazines, Table 9) is below 15 µM. Still for that read-out and setting: to `C[C@H]1CN(S(=O)(=O)c2ccc(F)cc2)c2cc(NC(=O)Cc3ccncc3)ccc2O1` [VI-130] belongs below 15 µM. On the same count and under the same terms, to `C[C@H]1CN(S(=O)(=O)c2ccc(F)cc2)c2cc(NC(=O)C3(c4ccc(Cl)cc4)CC3)ccc2O1` [VI-131] belongs below 15 µM; to `C[C@H]1CN(S(=O)(=O)c2ccc(F)cc2)c2cc(NC(=O)C3(c4ccc(Cl)cc4)CCCC3)ccc2O1` [VI-132], below 15 µM; to `C[C@H](C(=O)Nc1ccc2c(c1)N(S(=O)(=O)c1ccc(F)cc1)C[C@H](C)O2)c1ccccc1` [VI-133], below 15 µM.

In turn, `C[C@H]1CN(S(=O)(=O)c2ccc(F)cc2)c2cc(NC(=O)[C@H](C)c3ccccc3)ccc2O1` [VI-134] yielded a half-maximal inhibitory concentration (IC50) (benzoxazines, Table 9) below 15 µM. `C[C@H]1CN(S(=O)(=O)c2ccc(F)cc2)c2cc(NC(=O)C(C)(C)c3ccc(Cl)cc3)ccc2O1` [VI-135] registered an IC50 (benzoxazines, Table 9) below 15 µM.

Under “benzoxazines, Table 9”, `CC(C(=O)Nc1ccc2c(c1)N(S(=O)(=O)c1ccc(F)cc1)C[C@H](C)O2)c1ccc(Cl)cc1` (stereo partly shown) [VI-136] displayed an IC50 below 15 µM.
